The values below come from patent US20120214862A1, “MODULATION OF FACTOR 7 EXPRESSION” (ISIS Pharmaceuticals, Inc., priority 2009, published 2012).

In the oligonucleotide strings, read from the 5' end, every base follows the letter of its sugar. An asterisk marks phosphorothioate; unmarked linkages are phosphodiester. Other units and linkages are bracketed, terminal groups are in braces. A string of capitals states the bases alone. e = 2'-O-(2-methoxyethyl) (MOE); [5mC] = 5-methylcytosine; d = 2'-deoxy (DNA)

The data set relates to human Factor 7 mRNA. Put plainly: Antisense inhibition of human Factor 7 mRNA in HepB3 cells, lipofectin, 50 nM, real-time RT-PCR. In kind it is cell-based. Conditions: HepB3 cells; for % Inhibition (human Factor 7 mRNA): Example 1, 50 nM, ~24 h, relative to untreated control cells. An outline of the steps: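 Readout is percent reduction of Factor 7 message compared with untreated cells, after correction for total RNA content quantified by RIBOGREEN®. Cultures were seeded at 4,000 cells per well and treated for about 24 hours before RNA extraction.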
On the technique in general: Real-time PCR tracks product formation cycle by cycle.

The mark [1] stands for this setting: lipofectin, 50 nM antisense oligonucleotide, approximately 24 hours, primer probe set RTS 2927, relative to untreated control.
[2] abbreviates: gapmers targeted to nucleobases 13760 to 13789 of SEQ ID NO: 1 (Table 10).
Where [3] appears, read: gapmers (5-10-5, 3-14-3, 2-13-5 MOE) targeted to nucleobases 4868 to 4899 of SEQ ID NO: 1.

Turning to “416488 (antisense e[5mC]*eA*eG*eG*eT*d[5mC]*d[5mC]*dT*d[5mC]*d[5mC]*d[5mC]*dA*d[5mC]*dT*dG*e[5mC]*eA*eG*e[5mC]*e[5mC]) [compound 416488]”, under setting [1], the “% Inhibition of human Factor 7 mRNA levels” value is on record as 41%. “407609 (antisense eA*eG*eA*eA*eG*d[5mC]*dA*dG*dA*dT*dA*dT*dA*dG*dG*eA*e[5mC]*eT*eG*eG) [compound 407609]”: the “% Inhibition (human Factor 7 mRNA)” value (lipofectin) amounted to 35%.

As for “416499 (antisense eG*eA*eG*eA*eG*d[5mC]*dT*dG*d[5mC]*dA*d[5mC]*d[5mC]*dT*dG*dG*e[5mC]*e[5mC]*eG*eG*e[5mC]) [compound 416499]”, under setting [1], the “% Inhibition of human Factor 7 mRNA levels” value was 7%. As to “407625 (antisense eT*eT*eG*eT*e[5mC]*dG*dA*dA*dA*d[5mC]*dA*dG*dT*dG*dG*eG*e[5mC]*e[5mC]*eG*e[5mC]) [compound 407625]”, the “% Inhibition (human Factor 7 mRNA)” value (lipofectin) is listed as 100%.

On to “422182 (antisense e[5mC]*eG*e[5mC]*d[5mC]*dA*d[5mC]*d[5mC]*d[5mC]*dG*d[5mC]*d[5mC]*dG*dG*d[5mC]*dT*d[5mC]*dT*eG*e[5mC]*eT) [compound 422182]”, for which, under setting [2], the “% Inhibition of human Factor 7 mRNA levels” value is listed as 11%. With “407933 (antisense eT*eG*eA*eT*eA*dA*dT*dG*dG*dA*dT*dA*dA*dG*dA*eA*e[5mC]*e[5mC]*eA*eG) [compound 407933]”, the “% Inhibition (human Factor 7 mRNA)” value (lipofectin) is reported as 58%. Take “422230 (antisense e[5mC]*eA*dT*dG*d[5mC]*dA*dT*dG*dG*dT*dG*dA*dT*dG*d[5mC]*eT*eT*e[5mC]*eT*eG) [compound 422230]”: the “% Inhibition of human Factor 7 mRNA levels” value (gapmers targeted to nucleobases 15188 to 15211 of SEQ ID NO: 1 (Table 13)) turned out to be 65%.

Consider “422216 (antisense eA*eG*eT*dT*d[5mC]*dT*dG*d[5mC]*dA*dG*dG*dA*dG*d[5mC]*dG*dG*d[5mC]*e[5mC]*eT*eA) [compound 422216]”, for which the “% Inhibition of human Factor 7 mRNA levels” value under setting [3] worked out at 68%. Regarding “407615 (antisense eG*eA*e[5mC]*eA*e[5mC]*d[5mC]*d[5mC]*d[5mC]*dG*dT*d[5mC]*dT*dG*d[5mC]*d[5mC]*eA*eG*e[5mC]*eA*eG) [compound 407615]”, the “% Inhibition (human Factor 7 mRNA)” value (lipofectin) worked out at 65%. For the substance “422224 (antisense eG*eG*eA*dG*d[5mC]*d[5mC]*d[5mC]*dG*dA*dG*dT*dT*d[5mC]*dT*dG*d[5mC]*dA*eG*eG*eA) [compound 422224]”, the “% Inhibition of human Factor 7 mRNA levels” value under setting [3] came out at 62%.

As for “407607 (antisense eT*eG*eG*eA*eG*d[5mC]*dT*dG*dG*dT*d[5mC]*d[5mC]*dT*dT*dG*e[5mC]*eA*eG*eG*eA) [compound 407607]”, the “% Inhibition (human Factor 7 mRNA)” value (lipofectin) was found to be 76%. In the case of “422108 (antisense e[5mC]*e[5mC]*eG*e[5mC]*e[5mC]*dG*dG*d[5mC]*dT*d[5mC]*dT*dG*d[5mC]*dT*d[5mC]*eA*eT*e[5mC]*e[5mC]*e[5mC]) [compound 422108]”, the “% Inhibition of human Factor 7 mRNA levels” value under setting [2] was found to be 69%. Turning to “422219 (antisense e[5mC]*e[5mC]*eG*dA*dG*dT*dT*d[5mC]*dT*dG*d[5mC]*dA*dG*dG*dA*dG*d[5mC]*eG*eG*e[5mC]) [compound 422219]”, the “% Inhibition of human Factor 7 mRNA levels” value under setting [3] is 65%.

“422278 (antisense eG*e[5mC]*d[5mC]*dT*dG*dA*dG*dG*d[5mC]*d[5mC]*dA*dG*d[5mC]*dA*dG*eA*eT*e[5mC]*eA*e[5mC]) [compound 422278]”: the “% Inhibition of human Factor 7 mRNA levels” value (gapmers targeted to nucleobases 14707 to 14732 of SEQ ID NO: 1 (Table 11)) amounted to 64%. On to “416559 (antisense eG*e[5mC]*e[5mC]*eA*eT*dT*dT*d[5mC]*dT*dA*dG*dG*dT*d[5mC]*dT*eG*e[5mC]*eA*eG*eG) [compound 416559]”, for which the “% Inhibition of human Factor 7 mRNA levels” value under setting [1] is 25%.

On to “407911 (antisense e[5mC]*e[5mC]*e[5mC]*e[5mC]*eT*dT*dG*d[5mC]*dA*dG*dG*dA*dG*dT*d[5mC]*e[5mC]*eT*eT*eG*e[5mC]) [compound 407911]”, for which the “% Inhibition (human Factor 7 mRNA)” value (lipofectin) was found to be 74%.

As for “407923 (antisense e[5mC]*eA*eG*eG*eA*d[5mC]*dA*dG*dT*dT*d[5mC]*dG*dA*d[5mC]*dG*e[5mC]*eA*eG*e[5mC]*e[5mC]) [compound 407923]”, the “% Inhibition (human Factor 7 mRNA)” value (lipofectin) was 76%.
